Test results published in patent US20030087395A1, “Cardiotrophin-like cytokine” (Human Genome Sciences, Inc., priority 1997, published 2003).

Legend:
[1] = tested on: NF-κB promoter element in Jurkat T-cells; assay: NF-κB/SEAP screening assay in Jurkat T-cells; type: cell-based; conditions: 0.1, 1, 10 ng, typically observed
Experimental: Due to its central role and ability to respond to a range of stimuli, reporter constructs utilizing the NF-κB promoter element are used to screen the supernatants produced in Example 6. Activators or inhibitors of NF-κB would be useful in treating diseases. For example, inhibitors of NF-κB could be used to treat those diseases related to the acute or chronic activation of NF-κB, such as rheumatoid arthritis and others.
PCR amplification is performed using the SV40 promoter template present in the pb-gal:promoter plasmid obtained from Clontech. The resulting PCR fragment is digested with Xho I and Hind III and subcloned into BLSK2-(Stratagene). Sequencing with the T7 and T3 primers confirms the insert contains the following sequence: 5′-CTC
Next, replace the SV40 minimal promoter element present in the pSEAP2-promoter plasmid (Clontech) with this NF-κB/SV40 fragment using Xho I and Hind III.
Particularly, the NF-κB/SV40/SEAP cassette was inserted into pGFP-1 (Clontech), replacing the GFP gene, after restricting pGFP- 1 with Sal I and Not I.
Once NF-κB/SV40/SEAP/Neo vector is created, stable Jurkat T-cells are created and maintained according to the protocol described in Example 9. Similarly, the method for assaying supernatants with these stable Jurkat T-cells is also described in Example 9. […]

[2] = tested on: PC12 cells; assay: EGR-SEAP/PC12 screening assay for neuronal activity; type: cell-based, rat; conditions: 50 ng/ul; PC12 EGR-SEAP; typically seen
Source text: Particularly, the following protocol is used to assess neuronal activity in PC12 cell lines. PC12 cells (rat phenochromocytoma cells) are known to proliferate and/or differentiate by activation with a number of mitogens, such as TPA (tetradecanoyl phorbol acetate), NGF (nerve growth factor), and EGF (epidermal growth factor). The EGR1 gene expression is activated during this treatment. Thus, by stably transfecting PC12 cells with a construct containing an EGR promoter linked to SEAP reporter, activation of PC12 cells by CLC can be assessed.
The EGR/SEAP reporter construct can be assembled by the following protocol. The EGR-1 promoter sequence (−633 to +1; Sakamoto, K., et al., Oncogene 6:867-871 (1991)) can be PCR amplified from human genomic DNA using the following primers. The 5′ primer has the sequence: 5′-GCGCTCGAGGGATGACAGCGATAGAACCCCGG-3′ (SEQ ID NO:19) and the 3′ primer has the sequence: 5′-GCGAAGCTTCGCGACTCCCCGGATCCGCCTC-3′ (SEQ ID NO:20).
Using the GAS:SEAP/Neo vector produced in Example 6, EGR1 amplified product can then be inserted into this vector. Linearize the GAS:SEAP/Neo vector using restriction enzymes Xho I and Hind III, removing the GAS/SV40 stuffer. Restrict the EGR1 amplified product with these same enzymes. Ligate the vector and the EGR1 promoter. […]

Substance	activation in positive control wells [1]	induction of SEAP in positive control wells [2]
TNF alpha	5-10 fold	–
NGF: growth factor known to activate PC12 cells through EGR	–	Over fifty-fold induction
